Test results published in US11358947B2, “Substituted 2-acylamino-cycloalkylthiophene-3-carboxylic acid arylamides as inhibitors of calcium-activated chloride channel TMEM16A” (THE REGENTS OF THE UNIVERSITY OF CALIFORNIA, priority 2017, dated 2022).
Values joined by “and” are separate entries in the source; they are usually repeats but may differ in a detail not shown here. Identical values can stand only once.

Columns and labels:
FRT null cells = assay: Cytotoxicity by Alamar Blue assay in FRT cells; format: cell-based, rat; conditions: 8 h
Protocol: (§1) Concentration-dependent inhibition of TMEM16A measured by short-circuit current assay; TMEM16B and non-TMEM16 anion conductance measured using a fluorescence plate reader assay using FRT and HT-29 cells respectively; cell viability measured in FRT null cells.
We further assayed the compound potency on endogenous non-TMEM16A. Ca^2+-activated Cl^− channel in HT-29 cells.
Cytotoxicity. FRT cells were cultured overnight in black 96-well Costar microplates and incubated with 5 μM test compounds for 8 h. Cytotoxicity was measured by Alamar Blue assay (Invitrogen, Carlsbad, Calif.) as per the manufacturer's instructions.

SW-480 cells = assay: SW-480 cell proliferation, AlamarBlue after 72 h; format: cell-based; conditions: Homo sapiens, SW480; AlamarBlue after 72 h of drug treatment; read-out: IC50 inhibition of SW-480 cell proliferation
Protocol: Compounds according to the present disclosure (structures shown in FIG. 5B) were tested for their inhibitory effect on proliferation of SW-480 cell line.
SW-480 cells were cultured on plastic in Leibovitz L15 medium supplemented with 10% fetal bovine serum, 2 mM L-glutamine, 100 units/mL penicillin, and 100 μg/mL streptomycin. The cells were incubated at 37° C. without CO2.
SW-480 cells were plated into black 96-well microplates (Corning-Costar Corp., New York, N.Y.) at 10% seeding. The cells were treated with test compounds dissolved in DMSO in serial dilution while maintaining the final concentration of DMSO at 0.5%. Plated cells were then incubated for 72 h at 37° C. Cell proliferation was quantified using the AlamarBlue assay (Invitrogen, Carlsbad, Calif.) as per the manufacturer's instructions. Data was normalized against untreated control cells that were lysed for 10 minutes using Triton-X100 (0.1% in PBS).

TMEM16A [1] = molecular target: T1, TMEM16A (Homo sapiens, UniProt Q5XXA6); assay: TMEM16A functional fluorescence plate reader (FPR) assay, iodide influx in FRT cells with YFP; format: cell-based; conditions: TMEM16A-expressing FRT cells, compound 10 min before iodide/ATP
T1 sequence (Q5XXA6 1-986): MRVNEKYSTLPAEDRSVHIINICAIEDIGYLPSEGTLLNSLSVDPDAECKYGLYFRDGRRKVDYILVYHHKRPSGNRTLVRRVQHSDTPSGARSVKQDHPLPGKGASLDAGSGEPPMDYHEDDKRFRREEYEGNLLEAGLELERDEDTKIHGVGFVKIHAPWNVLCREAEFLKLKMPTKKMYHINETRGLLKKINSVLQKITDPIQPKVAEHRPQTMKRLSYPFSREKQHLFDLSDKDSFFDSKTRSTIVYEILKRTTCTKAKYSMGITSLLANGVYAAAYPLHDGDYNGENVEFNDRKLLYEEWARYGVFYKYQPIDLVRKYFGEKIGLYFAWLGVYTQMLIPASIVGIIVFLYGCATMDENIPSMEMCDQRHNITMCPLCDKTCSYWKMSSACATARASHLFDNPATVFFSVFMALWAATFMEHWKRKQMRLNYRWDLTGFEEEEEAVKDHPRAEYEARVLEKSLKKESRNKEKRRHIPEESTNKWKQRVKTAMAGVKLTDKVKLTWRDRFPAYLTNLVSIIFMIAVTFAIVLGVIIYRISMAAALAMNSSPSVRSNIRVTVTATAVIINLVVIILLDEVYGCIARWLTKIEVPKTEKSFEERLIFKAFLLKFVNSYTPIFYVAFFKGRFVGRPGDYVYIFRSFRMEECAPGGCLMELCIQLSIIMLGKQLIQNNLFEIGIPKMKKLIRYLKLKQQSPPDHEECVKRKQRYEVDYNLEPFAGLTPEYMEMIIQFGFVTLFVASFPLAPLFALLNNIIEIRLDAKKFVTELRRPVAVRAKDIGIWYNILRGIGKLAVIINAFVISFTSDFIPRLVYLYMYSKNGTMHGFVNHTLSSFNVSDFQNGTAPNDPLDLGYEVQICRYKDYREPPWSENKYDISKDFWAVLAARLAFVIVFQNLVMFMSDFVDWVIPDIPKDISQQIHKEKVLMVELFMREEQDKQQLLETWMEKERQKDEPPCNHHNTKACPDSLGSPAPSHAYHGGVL
Protocol: A high-throughput screening assay was previously developed to identify small molecule inhibitors of TMEM16A. […] The assay involved addition of test compounds to the cells for 10 min in a physiological chloride-containing solution, followed by addition of an iodide solution containing ATP. TMEM16A-facilitated iodide influx was determined from the initial time course of decreasing YFP fluorescence.
2-Acylamino-cycloalkylthiophene-3-carboxylic acid arylamides 6aa-6bw were initially evaluated for inhibition of TMEM16A anion channel function using a cell-based functional plate reader assay as reported.
Yields (%) are of the isolated or purified products. IC50 (μM) for inhibition of TMEM16A anion conductance using a fluorescence plate reader (FPR) assay.
Cell lines and culture. Fischer Rat Thyroid (FRT) cells stably co-expressing TMEM16A, TMEM16B and human wild-type CFTR and the halide-sensitive yellow fluorescent protein (YFP)-H148Q were cultured as described. […] For plate reader assays, cells were plated in black 96-well microplates (Corning-Costar Corp., New York, N.Y.) at a density of 20,000 cells per well and assayed 24-48 hours after plating.
TMEM16A functional assay. TMEM16A functional plate-reader assay was done as previously described. […] Test compounds (0.5 μl in DMSO) were added to each well at specified concentration. […] The initial rate of I− influx following each of the solution additions was computed from fluorescence data by nonlinear regression. TMEM16B activity was assayed similarly as described using FRT cells co-expressing YFP and TMEM16B.

TMEM16A [2] = molecular target: T1, TMEM16A; assay: Short-circuit current assay in TMEM16A-expressing FRT cells; format: cell-based
Description: Measurements were done in FRT cells expressing TMEM16A.
as §1
Short-circuit current measurement. Short-circuit current measurements were done as described. (See Piechowicz, K. A. et al., J Enzyme Inhib Med Chem 2016, 1-7.) Briefly, Snapwell inserts (Corning Costar, Corning, N.Y.) containing TMEM16A-expressing FRT cells were mounted in Ussing chambers (Physiological instruments, San Diego, Calif.). The hemichambers were filled with 5 ml of HCO3^− buffered solution (basolateral) and half-Cl^− solution (apical), and the basolateral membrane was permeabilized with 250 μg/ml amphotericin B. Solutions were bubbled with 95% O2/5% CO2 and maintained at 37° C., and short-circuit current was measured on a DVC-1000 voltage clamp (World Precision Instruments Inc., Sarasota, Fla.) using Ag/AgCl electrodes and 3 M KCl agar bridges.

Cc1ccccc1NC(=O)c1c(NC(=O)C(F)(F)Br)sc2c1CCCCC2 [Compound 6bm, 2-(2-Bromo-2,2-difluoro-acetylamino)-5,6,7,8-tetrahydro-4H-cyclohepta[b]thiophene-3-carboxylic acid o-tolylamide]
Cellular survival % at 5 μM (FRT null cells): 97% | IC50 (SW-480 cells): 7000 nM | IC50 (TMEM16A [1]): 80 to 180 nM and 83 nM | IC50 (TMEM16A [2]): 30 nM

Cc1ccccc1NC(=O)c1c(NC(=O)C(F)(F)F)sc2c1CCCCC2 [Compound 6aa, 2-(2,2,2-Trifluoro-acetylamino)-5,6,7,8-tetrahydro-4H-cyclohepta[b]thiophene-3-carboxylic acid o-tolylamide]
Cellular survival % at 5 μM (FRT null cells): 99% | IC50 (SW-480 cells): 950 nM | IC50 (TMEM16A [1]): 420 nM | IC50 (TMEM16A [2]): 260 nM
